The values that follow come from patent US8383581B2, “Short-chain peptides as parathyroid hormone (PTH) receptor agonist” (Cadila Healthcare Limited, priority 2009, dated 2013).

Holding throughout (format): in vitro ADME
The nature of series [1]: Stability of peptides in human plasma. The note with it: human, plasma; for metabolised at 24 h, 2 μM: pH 7.8. The gist of the method:
(§1)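 Peptides at 2 μM final incubated 0–24 h at 37 °C (50 mM triethanolamine-HCl, pH 7.8) in each matrix, matrix level set to degrade ~50% PTH(1-34) in 1 h; TFA-quenched, C18 HPLC at 206 nm with ESI-MS peak identification; percent degradation from peak areas at each time point.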

Series [2] is described as follows: Stability of peptides in simulated gastric fluid (pH 1.5; HCl, NaCl and Pepsin). Conditions: pH 1.5; for % degradation of peptides in 24 h when incubated with simulated gastric fluid: 2 μM; for half-life (t1/2) in simulated gastric fluid / half-life: simulated gi fluid.
A short description of series [3]: Stability of peptides in simulated intestinal fluid (pH 7.5). Conditions: pH 7.5; for half-life (t1/2) in simulated intestinal fluid / half-life: simulated gi fluid; for % degradation of peptides in 24 h when incubated with simulated intestinal fluid: 2 μM. The gist of the method: as §1
A short description of series [4]: Stability of peptides in human liver microsomes. Conditions: human, microsomes; for % degradation of peptides in 24 h when incubated with liver microsomes: 2 μM, pH 7.8. The essentials: as §1

The structures appear in SMILES notation. Where a SMILES comes first, the peptide text is derived from it. [ ]: non-standard residue; d: D form. ξ: configuration not given here. ξBip(2'-Et-4'-OMe) = CCc1cc(OC)ccc1-c1ccc(CC(N)C(=O)O)cc1; Arg(NO2) = N=C(NCCC[C@H](N)C(=O)O)N[N+](=O)[O-]; ξαMePhe(2,6-F2) = CC(N)(Cc1c(F)cccc1F)C(=O)O; ξαMePhe(2-F) = CC(N)(Cc1ccccc1F)C(=O)O; hhPhe = N[C@@H](CCCc1ccccc1)C(=O)O; hArg = N=C(N)NCCCC[C@H](N)C(=O)O; hCit = NC(=O)NCCCC[C@H](N)C(=O)O; Cit = NC(=O)NCCC[C@H](N)C(=O)O; Nle = CCCC[C@H](N)C(=O)O; Orn = NCCC[C@H](N)C(=O)O; Ac5c = NC1(C(=O)O)CCCC1; Ac3c = NC1(C(=O)O)CC1; Aib = CC(C)(N)C(=O)O

With `CCCC[C@H](NC(=O)C(C)(Cc1c(F)cccc1F)NC(=O)[C@H](CCC(N)=O)NC(=O)[C@@H](NC(=O)[C@H](CCC(=O)O)NC(=O)C(C)(C)NC(=O)[C@@H](NC(=O)C(C)(C)N)C(C)C)[C@@H](C)CC)C(=O)N[C@@H](Cc1c[nH]cn1)C(=O)N[C@@H](CCC(N)=O)C(=O)N[C@@H](CCCCNC(N)=O)C(=O)N[C@@H](C)C(=O)N[C@@H](CCCNC(N)=O)C(=O)NC(Cc1ccc(-c2ccc(OC)cc2CC)cc1)C(=O)N[C@@H](CCCc1ccccc1)C(N)=O` (some centres unmarked) [Seq. ID. 860] (H-[Aib]V[Aib]EIQ[ξαMePhe(2,6-F2)][Nle]HQ[hCit]A[Cit][ξBip(2'-Et-4'-OMe)][hhPhe]-NH2), in series [1], the half-life is 8 h and the metabolised at 24 h, 2 μM came out at 77%. In addition, in series [2], the “% degradation of peptides in 24 h when incubated with simulated gastric fluid” value (shortened to “% degradation … with simulated gastric fluid”) is 14% and the “half-life (t1/2) in simulated gastric fluid” value is “(8) h”. Besides, in series [3], the “half-life (t1/2) in simulated intestinal fluid” value was “(6) h” and the “% degradation of peptides in 24 h when incubated with simulated intestinal fluid” value (“% degradation … with simulated intestinal fluid” below) is 45%. Moreover, in series [4], the half-life worked out at 1 h and the “% degradation of peptides in 24 h when incubated with liver microsomes” value (“% degradation … with liver microsomes” for short) stood at 81%.
In series [1], `CCCC[C@H](NC(=O)[C@H](CC(C)C)NC(=O)[C@H](CCC(N)=O)NC(=O)[C@@H](NC(=O)[C@H](CCC(=O)O)NC(=O)C(C)(C)NC(=O)[C@@H](NC(=O)C(C)(C)N)C(C)C)[C@@H](C)CC)C(=O)N[C@@H](Cc1c[nH]cn1)C(=O)N[C@@H](CCC(N)=O)C(=O)N[C@@H](CCCN)C(=O)N[C@@H](C)C(=O)NC(C)(C)C(=O)NC(Cc1ccc(-c2ccc(OC)cc2CC)cc1)C(=O)N[C@@H](CCCc1ccccc1)C(N)=O` (some centres unmarked) [Seq. ID. 750] (H-[Aib]V[Aib]EIQL[Nle]HQ[Orn]A[Aib][ξBip(2'-Et-4'-OMe)][hhPhe]-NH2) gave a half-life of over 23 h and a metabolised at 24 h, 2 μM of 9%. In series [2], the “% degradation … with simulated gastric fluid” value is 45% and the half-life was 4 h. In series [3], the half-life is over 24 h and the “% degradation … with simulated intestinal fluid” value is reported as 00%. In series [4], the half-life turned out to be 2 h and the “% degradation … with liver microsomes” value came to 85%.
In series [1], `CCCC[C@H](NC(=O)C(C)(Cc1ccccc1F)NC(=O)[C@H](CCC(N)=O)NC(=O)[C@@H](NC(=O)[C@H](CCC(=O)O)NC(=O)C(C)(C)NC(=O)[C@@H](NC(=O)C(C)(C)N)C(C)C)[C@@H](C)CC)C(=O)N[C@@H](Cc1c[nH]cn1)C(=O)N[C@@H](CCC(N)=O)C(=O)N[C@@H](CCCCNC(=N)N)C(=O)N[C@@H](C)C(=O)NC(C)(C)C(=O)NC(C)(Cc1ccccc1F)C(N)=O` (some centres unmarked) [Seq. ID. 161] (H-[Aib]V[Aib]EIQ[ξαMePhe(2-F)][Nle]HQ[hArg]A[Aib][ξαMePhe(2-F)]-NH2) had a half-life of 8 h and a metabolised at 24 h, 2 μM of 78%. Moreover, in series [2], the “% degradation … with simulated gastric fluid” value is listed as 14% and the “half-life (t1/2) in simulated gastric fluid” value was “(8) h”. In addition, in series [3], the “half-life (t1/2) in simulated intestinal fluid” value is “(6) h” and the “% degradation … with simulated intestinal fluid” value was 43%. Besides, in series [4], the half-life came to 1 h and the “% degradation … with liver microsomes” value is 80%.
Consider `CCCC[C@H](NC(=O)[C@H](CC(C)C)NC(=O)[C@H](CCC(N)=O)NC(=O)[C@@H](NC(=O)[C@H](CCC(=O)O)NC(=O)C(C)(C)NC(=O)[C@@H](NC(=O)C1(N)CCCC1)C(C)C)[C@@H](C)CC)C(=O)N[C@@H](Cc1c[nH]cn1)C(=O)N[C@@H](CCC(N)=O)C(=O)NC(C)(Cc1c(F)cccc1F)C(=O)NC(C)(C)C(=O)N[C@@H](CCCNC(N)=O)C(=O)NC(Cc1ccc(-c2ccc(OC)cc2CC)cc1)C(=O)N[C@@H](CCCc1ccccc1)C(N)=O` (some centres unmarked) [Seq. ID. 805] (H-[Ac5c]V[Aib]EIQL[Nle]HQ[ξαMePhe(2,6-F2)][Aib][Cit][ξBip(2'-Et-4'-OMe)][hhPhe]-NH2), for which, in series [1], the half-life is over 24 h and the metabolised at 24 h, 2 μM was determined as 0%. Also, in series [2], the “% degradation … with simulated gastric fluid” value is reported as 49% and the half-life was 4 h. Further, in series [3], the half-life was over 24 h and the “% degradation … with simulated intestinal fluid” value was 00%. In series [4], the half-life amounted to 2 h and the “% degradation … with liver microsomes” value is given as 82%.
In series [1], `CCCC[C@H](NC(=O)[C@H](CC(C)C)NC(=O)[C@H](CCC(N)=O)NC(=O)[C@@H](NC(=O)[C@H](CCC(=O)O)NC(=O)C1(NC(=O)[C@@H](NC(=O)C2(N)CC2)C(C)C)CC1)[C@@H](C)CC)C(=O)N[C@@H](Cc1c[nH]cn1)C(=O)N[C@@H](CCC(N)=O)C(=O)N[C@@H](CCCCNC(=N)N)C(=O)N[C@@H](C)C(=O)N[C@@H](CCCNC(=N)N[N+](=O)[O-])C(=O)NC(Cc1ccc(-c2ccc(OC)cc2CC)cc1)C(=O)N[C@@H](CCCc1ccccc1)C(N)=O` (some centres unmarked) [Seq. ID. 690] (H-[Ac3c]V[Ac3c]EIQL[Nle]HQ[hArg]A[Arg(NO2)][ξBip(2'-Et-4'-OMe)][hhPhe]-NH2) returned a half-life of 8 h and a metabolised at 24 h, 2 μM of 70%. For the same compound, in series [2], the “% degradation … with simulated gastric fluid” value was 12% and the “half-life (t1/2) in simulated gastric fluid” value is “(8) h”. In addition, in series [3], the “half-life (t1/2) in simulated intestinal fluid” value was “(6) h” and the “% degradation … with simulated intestinal fluid” value is recorded as 42%. In series [4], the half-life came to 1 h and the “% degradation … with liver microsomes” value was determined as 78%.
In series [1], `CCCC[C@H](NC(=O)C(C)(Cc1c(F)cccc1F)NC(=O)[C@H](CCC(N)=O)NC(=O)[C@@H](NC(=O)[C@H](CCC(=O)O)NC(=O)C1(NC(=O)[C@@H](NC(=O)C2(N)CCCC2)C(C)C)CC1)[C@@H](C)CC)C(=O)N[C@@H](Cc1c[nH]cn1)C(=O)N[C@@H](CCC(N)=O)C(=O)N[C@@H](CCCCNC(=N)N)C(=O)N[C@@H](C)C(=O)N[C@@H](CCCNC(=N)N[N+](=O)[O-])C(=O)NC(C)(Cc1c(F)cccc1F)C(=O)N[C@@H](CCCc1ccccc1)C(N)=O` (some centres unmarked) [Seq. ID. 710] (H-[Ac5c]V[Ac3c]EIQ[ξαMePhe(2,6-F2)][Nle]HQ[hArg]A[Arg(NO2)][ξαMePhe(2,6-F2)][hhPhe]-NH2) had a half-life of over 24 h and a metabolised at 24 h, 2 μM of 0%. In addition, in series [2], the “% degradation … with simulated gastric fluid” value is reported as 00% and the half-life was over 24 h. In addition, in series [3], the half-life was over 24 h and the “% degradation … with simulated intestinal fluid” value is listed as 00%. Moreover, in series [4], the “half-life (t1/2) in liver microsomes” value is “(5) h” and the “% degradation … with liver microsomes” value turned out to be 35%.
As for `CCCC[C@H](NC(=O)C(C)(Cc1c(F)cccc1F)NC(=O)[C@H](CCC(N)=O)NC(=O)[C@@H](NC(=O)[C@H](CCC(=O)O)NC(=O)C(C)(C)NC(=O)[C@@H](NC(=O)C1(N)CCCC1)C(C)C)[C@@H](C)CC)C(=O)N[C@@H](Cc1c[nH]cn1)C(=O)N[C@@H](CCC(N)=O)C(=O)N[C@@H](CCCCNC(=N)N)C(=O)N[C@@H](C)C(=O)N[C@@H](CCCNC(=N)N)C(=O)NC(Cc1ccc(-c2ccc(OC)cc2CC)cc1)C(=O)N[C@@H](CCCc1ccccc1)C(N)=O` (some centres unmarked) [Seq. ID. 811] (H-[Ac5c]V[Aib]EIQ[ξαMePhe(2,6-F2)][Nle]HQ[hArg]AR[ξBip(2'-Et-4'-OMe)][hhPhe]-NH2), in series [1], the half-life is over 24 h and the metabolised at 24 h, 2 μM was determined as 0%. Moreover, in series [2], the “% degradation … with simulated gastric fluid” value is 52% and the half-life was 4 h. For the same compound, in series [3], the half-life was over 24 h and the “% degradation … with simulated intestinal fluid” value is 00%. In series [4], the half-life was found to be 2 h and the “% degradation … with liver microsomes” value was 81%.
